Test results: ChEMBL document CHEMBL3045607, “Design and synthesis of novel N-substituted-3-chloro-2-azetidinone derivatives as potential anticonvulsant agents” (Med Chem Res, 2011)
Calls of active or inactive are those of the source. No cut-off for these calls is given here.

What was measured:
[1] = system: Mus musculus; assay: Neurotoxicity in Mus musculus (mouse) assessed as minimal motor impairment at 300 mg/kg, ip after 0.5 hr by rotarod test; format: toxicity, organism-based; parameters: dose 300 mg/kg, route intraperitoneal; details: in vivo
[2] = system: Mus musculus; assay: Anticonvulsant activity in ip dosed Mus musculus (mouse) assessed as protection against subcutaneous pentylene tetrazole-induced seizure after 4 hr; format: functional; details: read-out: MED
[3] = system: Mus musculus; assay: Neurotoxicity in Mus musculus (mouse) assessed as increase in immobility time at 30 mg/kg, ip administered 30 min before test measured for 5 min by forced swimming test; format: toxicity, organism-based; parameters: dose 30 mg/kg, route intraperitoneal; details: in vivo
[4] = system: Mus musculus; assay: Neurotoxicity in Mus musculus (mouse) assessed as minimal motor impairment at 300 mg/kg, ip after 4 hr by rotarod test; format: toxicity, organism-based; parameters: dose 300 mg/kg, route intraperitoneal; details: in vivo
[5] = system: Mus musculus; assay: Anticonvulsant activity in ip dosed Mus musculus (mouse) assessed as protection against maximal electroshock-induced seizure after 4 hr; format: functional; details: read-out: MED
[6] = system: Mus musculus; assay: Anticonvulsant activity in ip dosed Mus musculus (mouse) assessed as protection against maximal electroshock-induced seizure after 0.5 hr; format: functional; details: read-out: MED
[7] = system: Mus musculus; assay: Anticonvulsant activity in ip dosed Mus musculus (mouse) assessed as protection against subcutaneous pentylene tetrazole-induced seizure after 0.5 hr; format: functional; details: read-out: MED
[8] = system: Mus musculus; assay: Anticonvulsant activity in Mus musculus (mouse) assessed as protection against subcutaneous pentylene tetrazole-induced seizure at 300 mg/kg, ip after 4 hr; format: functional, organism-based; parameters: dose 300 mg/kg
[9] = system: Mus musculus; assay: Anticonvulsant activity in Mus musculus (mouse) assessed as protection against subcutaneous pentylene tetrazole-induced seizure at 300 mg/kg, ip after 0.5 hr; format: functional, organism-based; parameters: dose 300 mg/kg
[10] = system: Mus musculus; assay: Anticonvulsant activity in Mus musculus (mouse) assessed as protection against maximal electroshock-induced seizure at 300 mg/kg, ip after 0.5 hr; format: functional, organism-based; parameters: dose 300 mg/kg
[11] = system: Mus musculus; assay: Neurotoxicity in ip dosed Mus musculus (mouse) assessed as minimal motor impairment after 4 hr by rotarod test; format: toxicity, organism-based; details: in vivo
[12] = system: Mus musculus; assay: Neurotoxicity in ip dosed Mus musculus (mouse) assessed as minimal motor impairment after 0.5 hr by rotarod test; format: toxicity, organism-based; details: in vivo

Structure (SMILES)	Activity [1]	minimal effective dose [2]	Activity [3]	Activity [4]	minimal effective dose [5]	minimal effective dose [6]	minimal effective dose [7]	Activity [8]	Activity [9]	Activity [10]	MTC [11]	MTC [12]
O=C(NN1C(=O)C(Cl)C1c1ccccc1)c1ccncc1 (stereo not given)	Non-toxic	100 mg/kg	11.5%	Non-toxic	100 mg/kg	100 mg/kg	100 mg/kg	–	–	–	–	–
O=C(NN1C(=O)C(Cl)C1c1ccccc1Cl)c1ccncc1 (stereo not given)	Non-toxic	–	–	Non-toxic	300 mg/kg	–	–	inactive	inactive	inactive	–	–
O=C(NN1C(=O)C(Cl)C1c1ccccc1O)c1ccncc1 (stereo not given)	Non-toxic	–	–	Non-toxic	300 mg/kg	–	–	inactive	inactive	inactive	–	–
Cc1ccc(C2C(Cl)C(=O)N2NC(=O)c2ccncc2)cc1 (stereo not given)	Non-toxic	30 mg/kg	21.66%	Non-toxic	30 mg/kg	30 mg/kg	100 mg/kg	–	–	–	–	–
O=C(NN1C(=O)C(Cl)C1c1ccccc1[N+](=O)[O-])c1ccncc1 (stereo not given)	Non-toxic	300 mg/kg	–	Non-toxic	300 mg/kg	–	–	–	inactive	inactive	–	–
O=C(NN1C(=O)C(Cl)C1c1ccc(Cl)cc1)c1ccncc1 (stereo not given)	Non-toxic	100 mg/kg	54.54%	Non-toxic	100 mg/kg	300 mg/kg	100 mg/kg	–	–	–	–	–
O=C(NN1C(=O)C(Cl)C1c1ccc(O)cc1)c1ccncc1 (stereo not given)	Non-toxic	300 mg/kg	–	–	100 mg/kg	–	–	–	inactive	inactive	300 mg/kg	–
O=C1NC(=O)C(c2ccccc2)(c2ccccc2)N1 [PHENYTOIN]	–	–	–	–	30 mg/kg	30 mg/kg	–	inactive	inactive	–	100 mg/kg	100 mg/kg
CN(C)c1ccc(C2C(Cl)C(=O)N2NC(=O)c2ccncc2)cc1 (stereo not given)	Non-toxic	100 mg/kg	49.83%	Non-toxic	100 mg/kg	100 mg/kg	–	–	inactive	–	–	–
COc1ccc(C2C(Cl)C(=O)N2NC(=O)c2ccncc2)cc1OC (stereo not given)	Non-toxic	100 mg/kg	33.83%	Non-toxic	100 mg/kg	100 mg/kg	100 mg/kg	–	–	–	–	–
COc1cc(C2C(Cl)C(=O)N2NC(=O)c2ccncc2)ccc1O (stereo not given)	Non-toxic	300 mg/kg	–	Non-toxic	100 mg/kg	300 mg/kg	–	–	inactive	–	–	–
NC(=O)N1c2ccccc2C=Cc2ccccc21 [CARBAMAZEPINE]	Non-toxic	300 mg/kg	30.66%	–	100 mg/kg	30 mg/kg	100 mg/kg	–	–	–	30 mg/kg	–
COc1ccccc1C1C(Cl)C(=O)N1NC(=O)c1ccncc1 (stereo not given)	Non-toxic	–	–	Non-toxic	300 mg/kg	–	–	inactive	inactive	inactive	–	–
O=C(NN1C(=O)C(Cl)C1c1ccc([N+](=O)[O-])cc1)c1ccncc1 (stereo not given)	Non-toxic	100 mg/kg	–	–	100 mg/kg	–	300 mg/kg	–	–	inactive	300 mg/kg	–
